In patent US20240201589A1, “ACTINIC RAY-SENSITIVE OR RADIATION-SENSITIVE RESIN COMPOSITION, ACTINIC RAY-SENSITIVE OR RADIATION-SENSITIVE FILM, PATTERN FORMING METHOD, AND METHOD FOR MANUFACTURING ELECTRONIC DEVICE” (FUJIFILM Corporation, priority 2021, published 2024) one finds pKa data, which are given here for seven molecules.

The nature of this data set: Acid dissociation constants pKa of acid generated from compound (I), by computation (ACD/Labs software package 1; Gaussian 16 DFT if not computable). To be noted: Table 1; values equal the difference between maximum and minimum pKa of the generated acid groups. An excerpt: In the present specification, the acid dissociation constant (pKa) is the pKa in an aqueous solution and is specifically a value determined by computation using the following software package 1 based on a Hammett substituent constant and a database of known literature values.
All pKa values in the present specification are values determined by computation using this software package.
Software package 1: Advanced Chemistry Development (ACD/Labs) Software V 8.14 for Solaris (1994-2007 ACD/Labs).
In the present specification, the pKa is a value determined by computation using the software package 1 based on the Hammett substituent constant and the database of known literature values as described above. When the pKa cannot be computed using this method, a value obtained using Gaussian 16 based on the DFT (density functional theory) is used.
The pKa values of the at least two acid groups generated from the compound (I) upon irradiation with actinic rays or radiation are determined using the following method.
(1) Suppose that all the acid anionic groups included in the compound (I) are replaced with their corresponding acid groups to generate an acid group-containing compound (PIA). In this case, there are two cases depending on the structure of the compound (I). In one case (case A), the acid group-containing compound (PIA) generated is a single compound (single molecule) having a plurality of acid groups. In the other case (case B), a plurality of compounds (plurality of molecules) each having at least one acid group are formed.
(2) The case A (its one specific example is mode 1 described below) will be described. A compound in which, among the plurality of acid groups included in the acid group-containing compound (PIA), an acid group having the smallest acid dissociation constant is reconverted to the corresponding acid anionic group is defined as an acid group-containing compound (PIA-1). The pKa when the acid group-containing compound (PIA) is converted to the acid group-containing compound (PIA-1) is determined and used as the pKa of the acid group reconverted to the acid anionic group. Next, a compound in which, among one or the plurality of acid groups included in the acid group-containing compound (PIA-1), an acid group having the smallest acid dissociation constant (when only one acid group is present, this acid group is used) is reconverted to the corresponding acid anionic group is defined as an acid group-containing compound (PIA-2). The pKa when the acid group-containing compound (PIA-1) is converted to the acid group-containing compound (PIA-2) is determined and used as the pKa of the acid group reconverted to the acid anionic group. This procedure is repeated until the resulting compound has no acid group, and the pKa values of the plurality of acid groups included in the acid group-containing compound (PIA) are thereby determined.
In the above method, when the number of acid groups having the smallest acid dissociation constant among the plurality of acid groups is two or more, one of these acid groups is arbitrarily selected, and the pKa when the compound is converted to a compound (PIA #) obtained by reconverting the selected acid group to its corresponding acid anionic group is determined. As for the pKa value of each of the remaining (unselected) acid groups, the pKa when the compound (PIA #) is converted to a “compound (PIA ##) obtained by reconverting an acid group newly selected from the remaining acid groups to its corresponding acid anionic group” is determined and used.
For a compound having one acid group, the pKa when the acid group in this compound is reconverted to the corresponding acid anionic group is used as the pKa of the acid group. When the compound having at least one acid group is a compound having a plurality of acid groups, the pKa of each acid group is determined using the method described in (2) above. […]

Take `O=C(NC(=O)C(F)(F)S(=O)(=O)[O-])c1ccc([S+](c2ccccc2)c2ccccc2)cc1` [Compound X-1]: the pKa came out at 9.96.
On to `O=C(NC(C(F)(F)F)C(F)(F)S(=O)(=O)[O-])c1ccc([S+](c2ccccc2)c2ccccc2S(=O)(=O)O)cc1` (stereo not shown) [Compound X-3], for which the pKa is given as 1.24.
Molecule `O=S(=O)(O)c1ccc([S+](c2ccccc2)c2ccc(OCC(F)(F)S(=O)(=O)[O-])cc2)cc1` (stereo not shown) [Compound X-6] showed a pKa of 0.77.
In turn, `O=C([N-]S(=O)(=O)C(F)(F)C(F)(F)C(F)(F)S(=O)(=O)[N-]C(=O)c1ccccc1[S+](c1ccccc1)c1ccccc1)c1ccccc1[I+]c1ccccc1` [Compound X-9] registered a pKa of 0.89.
For `COc1ccc([I+]c2cccc(C(=O)NS(=O)(=O)C(F)(F)C(F)(F)C(F)(F)S(=O)(=O)[N-]S(=O)(=O)C(F)(F)F)c2)cc1` [Compound X-11], the pKa was 10.26.
In turn, `Cc1ccc([I+]c2ccc(C(=O)NS(=O)(=O)C(F)(F)C(F)(F)C(F)(F)S(=O)(=O)[N-]S(=O)(=O)C(F)(F)F)cc2)cc1` [Compound X-12] displayed a pKa of 5.67.
In the case of `O=C([N-]C(=O)c1ccccc1[I+]c1ccccc1)c1ccc([I+]c2ccc(OS(=O)(=O)C(F)(F)C(F)(F)C(F)(F)S(=O)(=O)[O-])cc2)cc1` [Compound X-16] it was 12.11.

Usually pKa stands for the pH at which an ionisable group is half protonated. The low end stands for a stronger acid or weaker base, the high end for a weaker acid or stronger base.
